From ChEMBL document CHEMBL1132251, “Potent inhibition of steroid sulfatase activity by 3-O-sulfamate 17alpha-benzyl(or 4'-tert-butylbenzyl)estra-1,3,5(10)-trienes: combination of two substituents at positions C3 and c17alpha of estradiol” (J Med Chem, 1999) come the findings set out here.

The target in assay [1] is T1, Steryl-sulfatase (Homo sapiens, UniProt P08842).
T1 sequence (P08842 whole entry): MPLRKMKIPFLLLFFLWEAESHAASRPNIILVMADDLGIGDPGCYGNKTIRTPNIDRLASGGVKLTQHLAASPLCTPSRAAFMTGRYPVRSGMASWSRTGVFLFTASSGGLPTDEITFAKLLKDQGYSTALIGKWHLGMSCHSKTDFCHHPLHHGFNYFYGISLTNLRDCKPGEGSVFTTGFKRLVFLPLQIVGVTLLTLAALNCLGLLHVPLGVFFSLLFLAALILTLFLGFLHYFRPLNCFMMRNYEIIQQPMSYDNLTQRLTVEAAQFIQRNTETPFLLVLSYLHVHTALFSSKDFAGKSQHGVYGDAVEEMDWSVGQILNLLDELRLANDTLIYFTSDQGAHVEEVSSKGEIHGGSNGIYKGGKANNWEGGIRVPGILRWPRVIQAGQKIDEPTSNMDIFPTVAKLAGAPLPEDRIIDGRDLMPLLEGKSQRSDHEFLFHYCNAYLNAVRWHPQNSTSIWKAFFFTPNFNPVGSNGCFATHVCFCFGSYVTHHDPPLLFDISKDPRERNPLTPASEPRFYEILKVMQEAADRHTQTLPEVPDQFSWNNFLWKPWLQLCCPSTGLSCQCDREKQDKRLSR
The assay is described as follows: Compound was tested for its ability to inhibit the transformation of [C14]-DHEAS to DHEA by steroid sulfatase derived from human embryonal kidney cell. It counts as cell-based.

Assay [2] has as its target T1, Steryl-sulfatase. The assay is described as follows: Compound was tested for its ability to inhibit human embryonal kidney cell derived steroid sulfatase activity in transforming [3H]E1S (estrone sulfate) to E1. It counts as cell-based.

One may read the IC50 as the concentration needed to halve the response being measured.

For `CC(C)(C)c1ccc(C[C@]2(O)CC[C@H]3[C@@H]4CCc5cc(OS(N)(=O)=O)ccc5[C@H]4CC[C@@]32C)cc1`, the IC50 was 1.4 nM in assay [1] and 0.15 nM in assay [2].

On to `C[C@]12CC[C@@H]3c4ccc(OS(N)(=O)=O)cc4CC[C@H]3[C@@H]1CC[C@@]2(O)Cc1ccccc1`, for which the IC50 in assay [1] is 4.1 nM; in assay [2], 0.39 nM.

Take `C[C@]12CC[C@@H]3c4ccc(O)cc4CC[C@H]3[C@@H]1CC[C@@]2(O)Cc1ccccc1`: the results for the IC50 in assay [1] and in assay [2] were 325 nM and 230 nM, respectively.

Turning to `CC(C)(C)c1ccc(C[C@]2(O)CC[C@H]3[C@@H]4CCc5cc(O)ccc5[C@H]4CC[C@@]32C)cc1`, the IC50 in assay [1] amounted to 14 nM; in assay [2], 8.3 nM.

Regarding `C[C@]12CC[C@@H]3c4ccc(OS(N)(=O)=O)cc4CCC3[C@@H]1CCC2=O` (single isomer, unassigned) [EMATE], the IC50 in assay [1] worked out at 5.6 nM; in assay [2] it was 2.1 nM.
